In paper PMC4914250, “Cancer therapeutic approach based on conformational stabilization of mutant p53 protein by small peptides” (Oncotarget, 2016):

Tested on: p53 target genes in MDA231
Assay: Induction of p53 target genes by qRT-PCR, MDA231
Format: cell-based, human
Parameters: key: score 0- no effect-white; score 6- as or more effective than positive control- black
Conditions: score 0-6 compared to positive control
Description: RNA was obtained using Macherey-Nagel NucleoSpin RNA II Kit on cells pellet according to the manufacturer's protocol. Aliquots of 0.4-1 μg were reverse transcribed using Bio-RT 2000 (Bio-Lab) and random hexamer primers. QRT-PCR was performed on an ABI 7300 instrument (Applied Biosystems) using SYBR Green FastMix ROX (Quanta). RT-PCR primers (All primers sequences are presented 5′ to 3′): […]

Row | Substance | PCR MDA231
1 | myr-RRIRDPRILLLHFD [pCAP-325] | 6
2 | myr-PRVLPSPHTIHPSQYP [pCAP-229, myristoylated peptide, similarity to HIPK2] | 3
3 | WNHHHSTPHPAH [pCAP-97] | 3
4 | myr-RRKILFIRLMHNKH [pCAP-227, myristoylated peptide, similarity to GAS2] | 3
5 | WNHHHSTPHPAHRRRRRR [pCAP-97R, pCAP-97 with poly arginine tail] | 3
6 | HANLHHT [pCAP-87] | 4
7 | myr-RRLIVRILKLPNPPER [pCAP-242] | 2
8 | SFILFIRRGRLG [pCAP-60] | 2
9 | myr-RRKHNKHRPEPDSDER [pCAP-221] | 4
10 | YRRLLIGMMWRRRRRRRRR [pCAP-68] | 2

Tested on: H23
Assay: Crystal violet viability assay, H23
Format: cell-based, human
Parameters: key: score 0- no effect-white; score 6- as or more effective than positive control- black
Conditions: score 0-6 compared to positive control, 48 h
Description: (§1) We also performed a similar analysis on ES2 ovarian cancer cells, which express endogenous mp53^S241F, compared to ES2 cells in which p53 was stably knocked out using CRISPR/Cas9 (ES2 p53KO Figure S1F), to control for specificity for mutp53 (Figure 2D). In ES2 cells, too, some of the peptides caused a significant reduction in cell numbers, more prominent in the mutp53 expressing cells than in their p53KO counterparts. […] Overall, we performed this analysis on several different mutp53-expressing human cancer cell lines, and the results are summarized in Table S3. Based on this comprehensive picture, we reduced the number of most promising candidate lead peptides to 30. These peptides were then synthesized with an 8 arginine C-terminal tail for enhanced delivery across cell membranes (pCAPs 130-160); for clarity, peptides are referred to by their original number, with an R for poly arginine (see Table S3).
(§2) Cells were cultured in 96 wells plates with 2500-4000 cells/well. Serial dilutions of different peptides were added and the plates incubated for additional 48 h at 37°C. Then medium was removed and cell viability was determined by staining the cells with crystal violet (0.05%) in methanol/PBS (1:5, v/v), for 10 min, followed by 3 washes with PBS. 10% acetic acid was added to each well for 10 min. OD was determined at 595 nm.

Row | Substance | Viability H23
11 | myr-RRIRDPRILLLHFD [pCAP-325] | 4
12 | SFILFIRRGRLGRRRRRRRRR [pCAP-60R, pCAP-60 with poly arginine tail] | 4
13 | myr-PRVLPSPHTIHPSQYP [pCAP-229, myristoylated peptide, similarity to HIPK2] | 3
14 | HHPWTHHQRWS [pCAP-20] | 4
15 | myr-RRKILFIRLMHNKH [pCAP-227, myristoylated peptide, similarity to GAS2] | 3
16 | myr-RRLIVRILKLPNPPER [pCAP-242] | 6
17 | myr-RRKHNKHRPEPDSDER [pCAP-221] | 6

Tested on: p53 target genes p21, PUMA and Mdm2 in H1299-tsp53^V135A cells
Assay: Induction of p53 target genes by qRT-PCR, H1299-tsp53 cells
Format: cell-based, human
Conditions: peptide 5μg/ml, 18 hours, 37°C
Description: (§3) Since p53 works primarily as a transcription factor, we tested the ability of lead peptides to induce p53 target gene activation. To that end we used H1299-tsp53^V135A cells, which express temperature sensitive (ts) p53 and allow examination of WT and mutant p53 states in the same cellular background. In the representative experiment shown in Figure 3A, cells were exposed to the indicated peptides (5μg/ml) and then either transferred to 32°C or placed back at 37°C. Cells were harvested 18 hours later, and mRNA was extracted and subjected to qRT-PCR analysis. Expression levels of 3 representative p53 target genes, p21, PUMA and Mdm2, were examined. Values were normalized to non-treated cells at 37°C, and expression at 32°C, where the ts-p53 is in a WT conformation, served as positive control. […] A similar analysis was performed on ES2 ovarian cancer cells, expressing endogenous mp53^S241F, compared to ES2 p53KO cells (Figure 3B).
Figure 3 Peptides binding to p53 and their effect on the expression of p53 target genes A. - Bar graph illustrating the effect of selected peptides on activation of mutp53 by measuring transactivation of p53 target genes as determined by qRT-PCR. H1299 cells stably transfected with mutp53 (ts) A135V were used. The indicated peptides were added directly to the medium at a concentration of 5ug/ml and cells were then either moved to 32°C or returned to 37°C. 18 hours later cells were harvested, extracted for RNA, cDNA was synthesis subjected to qrt time PCR analysis. The expression level of 3 representative p53 target genes, p21, PUMA and Mdm2, were examined. The figure illustrates the relative fold induction of transcription of the cells treated with the selected peptides as compared to non-treated cells. B. - Bar graph illustrating the effect of selected peptides on activation of mutp53 by measuring transactivation of p53 target genes as determined by qRT-PCR. ES2and ES2-p53KO cells were treated with indicated peptides 5ug/ml, for 18 hours. Cells were harvested, and cDNA was subjected to qRT-PCR analysis. Expression of 4 representative p53 target genes, p21, PUMA, Mdm2 and CD95, was examined. The figure illustrates the relative fold induction of transcription in cells treated with the selected peptides compared to non-treated cells. C. - Binding of mutp53 to promoters of representative p53 target genes in live cells, assessed by chromatin immunoprecipitation. BT-549 breast cancer cells endogenously expressing mutant p53^R249S were treated for 5 hours with a mix of 3 pCAPs - 250, 242 and 325. […] DNA cross-linked p53 was immunoprecipitated, and binding to the p53 responsive elements of the PUMA, p21, CD95 and MDM2 gene promoters was quantified by qPCR. […] Results are presented as relative absorbance at 450nm. […]

Row | Substance | expression of the p53 target genes, H1299-tsp53
18 | IRGRIIR [pCAP-54] | significant increase
19 | SFILFIRRGRLGRRRRRRRRR [pCAP-60R, pCAP-60 with poly arginine tail] | significant increase
20 | LRCLLLLIGRVGRRRRRRRR [pCAP-24R, pCAP-24 with poly arginine tail] | significant increase
21 | WNHHHSTPHPAHRRRRRR [pCAP-97R, pCAP-97 with poly arginine tail] | significant increase

Tested on: recombinant WTp53 or mutp53R175H
Assay: ELISA of binding of WTp53 and mutp53 to plate-conjugated peptides
Conditions: peptides conjugated to wells, peptides recruited preferentially WTp53

Row | Substance | recruitment of mutp53 lower than of WTp53
22 | myr-RRLIVRILKLPNPPER [pCAP-242] | 50%-80%
23 | myr-RRKHNKHRPEPDSDER [pCAP-221] | 50%-80%

Tested on: MDA
Assay: Crystal violet viability assay, MDA
Format: cell-based, human
Conditions: score 0-6 compared to positive control, 48 h
Description: as §1, §2

Row | Substance | Viability MDA
24 | myr-RRIRDPRILLLHFD [pCAP-325] | 4
25 | IRGRIIR [pCAP-54] | 4
26 | IRGRIIRRRRRRRRR [pCAP-54R, pCAP-54 with poly arginine tail] | 4
27 | LRCLLLLIGRVGRRRRRRRR [pCAP-24R, pCAP-24 with poly arginine tail] | 4
28 | YPTQGHLR [pCAP-36] | 4
29 | WNHHHSTPHPAH [pCAP-97] | 4
30 | myr-RRKILFIRLMHNKH [pCAP-227, myristoylated peptide, similarity to GAS2] | 3
31 | WNHHHSTPHPAHRRRRRR [pCAP-97R, pCAP-97 with poly arginine tail] | 4
32 | myr-RRLIVRILKLPNPPER [pCAP-242] | 3
33 | myr-RRKHNKHRPEPDSDER [pCAP-221] | 5
34 | YRRLLIGMMWRRRRRRRRR [pCAP-68] | 4

Tested on: SK3
Assay: Crystal violet viability assay, SK3
Format: cell-based, human
Parameters: key: score 0- no effect-white; score 6- as or more effective than positive control- black
Conditions: score 0-6 compared to positive control, 48 h
Description: as §1, §2

Row | Substance | Viability SK3
35 | myr-RRIRDPRILLLHFD [pCAP-325] | 3
36 | IRGRIIR [pCAP-54] | 4
37 | IRILMFLIGCGR [pCAP-23] | 3
38 | SFILFIRRGRLGRRRRRRRRR [pCAP-60R, pCAP-60 with poly arginine tail] | 5
39 | myr-PRVLPSPHTIHPSQYP [pCAP-229, myristoylated peptide, similarity to HIPK2] | 3
40 | IRGRIIRRRRRRRRR [pCAP-54R, pCAP-54 with poly arginine tail] | 4
41 | LRCLLLLIGRVGRRRRRRRR [pCAP-24R, pCAP-24 with poly arginine tail] | 2
42 | HHPWTHHQRWS [pCAP-20] | 3
43 | IRILMFLIGCGRRRRRRRRR [pCAP-23R, pCAP-23 with poly arginine tail] | 3
44 | myr-RRKILFIRLMHNKH [pCAP-227, myristoylated peptide, similarity to GAS2] | 6
45 | WNHHHSTPHPAHRRRRRR [pCAP-97R, pCAP-97 with poly arginine tail] | 3
46 | LHSKTLVL [pCAP-17] | 3
47 | EVTFRHSVV [pCAP-1, randomly selected peptide used as inert comparison] | 3
48 | myr-RRLIVRILKLPNPPER [pCAP-242] | 5
49 | SFILFIRRGRLG [pCAP-60] | 3
50 | myr-RRKHNKHRPEPDSDER [pCAP-221] | 5

Tested on: p53 target genes in ES2 cells
Assay: Induction of p53 target genes by qRT-PCR, ES2
Format: cell-based, human
Conditions: peptide 5ug/ml, 18 hours; ES2 versus ES2 p53KO
Description: as §3
Figure 3 Peptides binding to p53 and their effect on the expression of p53 target genes A. - Bar graph illustrating the effect of selected peptides on activation of mutp53 by measuring transactivation of p53 target genes as determined by qRT-PCR. H1299 cells stably transfected with mutp53 (ts) A135V were used. The indicated peptides were added directly to the medium at a concentration of 5ug/ml and cells were then either moved to 32°C or returned to 37°C. 18 hours later cells were harvested, extracted for RNA, cDNA was synthesis subjected to qrt time PCR analysis. The expression level of 3 representative p53 target genes, p21, PUMA and Mdm2, were examined. The figure illustrates the relative fold induction of transcription of the cells treated with the selected peptides as compared to non-treated cells. B. - Bar graph illustrating the effect of selected peptides on activation of mutp53 by measuring transactivation of p53 target genes as determined by qRT-PCR. ES2and ES2-p53KO cells were treated with indicated peptides 5ug/ml, for 18 hours. Cells were harvested, and cDNA was subjected to qRT-PCR analysis. Expression of 4 representative p53 target genes, p21, PUMA, Mdm2 and CD95, was examined. The figure illustrates the relative fold induction of transcription in cells treated with the selected peptides compared to non-treated cells. C. - Binding of mutp53 to promoters of representative p53 target genes in live cells, assessed by chromatin immunoprecipitation. BT-549 breast cancer cells endogenously expressing mutant p53^R249S were treated for 5 hours with a mix of 3 pCAPs - 250, 242 and 325. Cells treated with a mix of inert peptides served as a negative control. DNA cross-linked p53 was immunoprecipitated, and binding to the p53 responsive elements of the PUMA, p21, CD95 and MDM2 gene promoters was quantified by qPCR. Results were normalized to input total DNA. Cell extracts immunoprecipitated with beads without antibody (beads) served as negative controls. A genomic segment containing no p53RE served as negative control (white and gray bars). D. - ELISA analysis of the binding of WTp53 and mutp53 to lead peptides. Peptides were conjugated to the bottoms of the wells of 96 well plates, employing a commercial conjugation kit (TAKARA). Control wells were coated with the αp53 monoclonal antibodies PAb1801, PAb1620 and PAb240. Recombinant WTp53 or mutp53R175H was added to the wells and incubated with the bound peptides or antibodies. Where indicated, soluble peptides were added as competitors (+ comp), to confirm the specificity of the binding to p53. pCAP-76 served as a negative control peptide. After removal of recombinant protein, plates were washed and incubated with αp53-HRP followed by TMB and optical density determination. Results are presented as relative absorbance at 450nm. […] See Materials and Methods for details.
Figure 4 Peptides trigger apoptosis in correlation to activation of WTp53 target genes A., C. - Apoptosis of ES2 cells treated with peptides. […]

Row | Substance | expression of the p53 target genes, ES2
51 | IRGRIIR [pCAP-54] | significant increase
52 | SFILFIRRGRLGRRRRRRRRR [pCAP-60R, pCAP-60 with poly arginine tail] | significant increase
53 | LRCLLLLIGRVGRRRRRRRR [pCAP-24R, pCAP-24 with poly arginine tail] | significant increase
54 | WNHHHSTPHPAHRRRRRR [pCAP-97R, pCAP-97 with poly arginine tail] | significant increase

Same assay, conditions: score 0-6 compared to positive control; induction of p53 target genes by qRT-PCR

Row | Substance | PCR ES2
55 | myr-PRVLPSPHTIHPSQYP [pCAP-229, myristoylated peptide, similarity to HIPK2] | 3
56 | LRCLLLLIGRVGRRRRRRRR [pCAP-24R, pCAP-24 with poly arginine tail] | 4
57 | HHPWTHHQRWS [pCAP-20] | 4
58 | WNHHHSTPHPAH [pCAP-97] | 5
59 | myr-RRKILFIRLMHNKH [pCAP-227, myristoylated peptide, similarity to GAS2] | 5
60 | WNHHHSTPHPAHRRRRRR [pCAP-97R, pCAP-97 with poly arginine tail] | 5
61 | EVTFRHSVV [pCAP-1, randomly selected peptide used as inert comparison] | 3
62 | HANLHHT [pCAP-87] | 2
63 | myr-RRLIVRILKLPNPPER [pCAP-242] | 4
64 | myr-RRKHNKHRPEPDSDER [pCAP-221] | 4
65 | YRRLLIGMMWRRRRRRRRR [pCAP-68] | 3
